Experimental data from article PMC10861593, “Kisspeptin-10 binding to Gpr54 in osteoclasts prevents bone loss by activating Dusp18-mediated dephosphorylation of Src” (Nature Communications, 2024).
Entries after “also recorded” stand apart in the source; their conditions may differ.

What was measured:
[1] = system: Dusp18 / Gpr54 interaction; assay: Co-IP: interaction of Dusp18 with Gpr54 in RAW264.7 cells; type: cell-based, mouse
Procedure: Beads were analyzed by phosphatase activity assay (a), mass spectrometry assay (b), IB analysis (c) and quantification of protein levels (d). e, f Protein co-localization was analyzed by IF staining in primary pre-osteoclast with 10 nM Kp-10 treatment for 20 min. […] Scale bar, 50 µm. g, h binding affinity was measured by SPR binding analysis. […] Data represent means ± SEM. P values were determined by one-way ANOVA analysis (a, d, j, l) or two-tailed Student’s t-test (f). Representative results were obtained from at least three independent experiments. Source data are provided as a Source Data file.
(§1) Whole-cell proteins were extracted using 1x RIPA buffer (25 mM Tris, pH7.5, 150 mM NaCl, 0.5% Sodium deoxycholate, 1% Triton-X-100) supplemented with protease inhibitors (Complete Mini, Roche) and phosphatase inhibitors (phosphatase inhibitor cocktail set I and II, Calbiochem). Immunoprecipitation and immunoblotting with indicated antibodies were performed as described in Supplementary Table 1. Image Jsoftware (V1.52) was used for quantification analysis. Uncropped and unprocessed blots are presented in the Supplementary Information file.

[2] = system: osteoblast differentiation; assay: osteoblast differentiation; type: cell-based, mouse
Procedure: For osteoblast differentiation analyses in vitro, we isolated bone marrow mesenchymal stem cells (MSCs) from femurs and tibias of 8-week-old WT and Kiss1^−/−, Gpr54^−/− and Dusp18^−/− mice using a 1 ml syringe with a 26 G needle. MSCs were seeded into 12-well plates at a concentration of 1 × 10^5 cells per well. Cells were incubated with 50 µg/mL ascorbic acid, 10 mmol/L beta-glycerophosphate and 10 nmol/L dexamethasone. The medium was replaced every 2 days during the incubation period. Alkaline phosphatase (ALP) activity was assayed using the assay mixtures containing 0.1 M 2-amino-2-methyl-1-propanol, 1 mM MgCl2, 8 mM p-nitrophenylphosphate disodium (Sigma). For determination of mineralization, cells were fixed with 95% ethanol and stained with AgNO3 by the von Kossa method.

[3] = system: DUSP18 / GPR54 interaction; assay: Co-IP: interaction of DUSP18 with GPR54 in transfected 293T cells; type: cell-based, human; conditions: 293T cells transfected with DUSP18-HA and GPR54-Flag, Kp-10 (10 nM) 20 min
Procedure: Data represent means ± SEM. P values were determined by one-way ANOVA analysis (b, c, e, g, i, k). Representative results were obtained from at least three independent experiments. Source data are provided as a Source Data file.
as §1
Supplementary Fig. 6 a, b IB and quantification of protein levels analysis. […] Error bars are ± SEM. P-values were determined by two-tailed Student’s t-test (b, e) or by one-way ANOVA analysis (h, j). *P <0.05, **P <0.01, ***P <0.001, ****P <0.0001. Representative results were observed from at least three independent experiments. Source data are provided as a Source Data file.

[4] = system: osteoclast formation from BMMs; assay: TRAP staining of osteoclast formation from BMMs; type: cell-based, mouse
[5] = system: DUSP18, Src, and GPR54 complex; assay: Co-IP: DUSP18, Src and GPR54 heterotrimer complex formation in transfected 293T cells; type: cell-based; conditions: 293T with HA-Src, GPR54-Myc, DUSP18 (C104S)-Flag, Kp-10 20 min
Procedure: Anti-Flag IP derived from 293 T cells transfected with HA-Src and either DUSP18-Flag or DUSP18 (C104S)-Flag constructs with or without Kp-10 treatment for 20 min were lysed and subjected to anti-FLAG IP (b). Phosphatase reaction products using His-DUSP18 and His-DUSP18 (C104S) proteins purified from E. coli and SRC proteins purified from Sf9 insect cells (c) and quantification of protein levels (d). Anti-Src IP derived from RAW264.7 cells treated with or without Kp-10 treatment for 20 min were lysed and subjected to anti-Src IP (e) and quantification of protein levels (f). g, h Src and Dusp18 co-localization was analyzed by IF staining in primary pre-osteoclasts treated with 10 nM Kp-10 treatment for 20 min. Representative images of endogenous Dusp18 and Src were shown by TIRF microscopy (g), and MOC was used to quantify the degree of colocalization in cells from multiple images taken randomly (h). Scale bar, 50 µm. i–m IB and quantification of protein levels analysis. Anti-Flag IP derived from 293 T cells transfected with HA-Src, GPR54-myc, and either DUSP18-Flag or DUSP18 (C104S)-Flag constructs after Kp-10 treatment for 20 min (i) and quantification of protein levels (j, k). […] Scale bars, 125 µm (n), and pits depth were quantified by confocal microscopy (o). […] P values were determined by one-way ANOVA analysis (d, f, j, k, m, o) or by two-tailed Student’s t-test (h). […]

[6] = system: osteoclast bone resorption; assay: pit assay (bone resorption); type: cell-based, mouse; conditions: for bone resorption: dentin slices, 5–7 days

In the case of Kisspeptin-10 [Kp-10], the “recruitment of Src and Dusp18 by Gpr54, 10 nM” value ([1]; 10 nM Kp-10, Co-IP and IF) is reported as “more significantly recruited”, the “interaction of Dusp18 with Gpr54” value ([1]; RAW264.7 cells, indicated dose of Kp-10 for 20 min) is reported as “dose-dependently induced the interaction of Dusp18 with Gpr54” and the “osteoblast differentiation, low dose” value ([2]; Kp-10 0.01 nM and 0.1 nM) is reported as “effectively suppressed osteoblast differentiation”. The osteoblast differentiation ([2]; upon Kp-10 stimulation, ALP and von Kossa staining) was “dose-dependently suppressed”, the “interaction of DUSP18 with GPR54” value [3] was “dose-dependently induced the interaction” and the osteoclast formation ([4]; Arrb1 knockout BMMs) was “still suppressed by Kp-10; also recorded: still blocked osteoclast formation”. The osteoclast formation ([4]; Arrb2 knockout BMMs) was “still suppressed by Kp-10; also recorded: still blocked osteoclast formation”, the “heterotrimer complex formation with DUSP18 (C104S)” value [5] was “but not when the catalytic center of DUSP18 was killed” and the “bone resorption (pit formation, pit depth)” value ([6]; Dusp18 WT osteoclasts) was “bone resorption was suppressed”. For the same substance, the bone resorption ([6]; Gpr54-WT osteoclasts) was “suppressed bone resorption” and the bone resorption ([6]; Gpr54 knockout osteoclasts) was “did not have a significant effect”.
